Laboratory results: EP4603105A1, “PHARMACEUTICAL COMPOSITION CONTAINING CYCLIC COMPOUND HAVING SELECTIVE KRAS INHIBITORY EFFECT AGAINST HRAS AND NRAS” (CHUGAI SEIYAKU KABUSHIKI KAISHA, priority 2022, dated 2024)
*1 amine or outer side, *2 acyl side, *3 side chain or, on linkers, in order; H or OH if unused. Where a SMILES comes first, the peptide text is derived from it. Bridges are numbered along the chain shown (N, C = ends). [ ]: non-standard residue; d: D form. The star is where a group is joined. hPhe(3,5-F2-4-CF3) = N[C@@H](CCc1cc(F)c(C(F)(F)F)c(F)c1)C(=O)O; hPhe(3-Cl-4-CF3) = N[C@@H](CCc1ccc(C(F)(F)F)c(Cl)c1)C(=O)O; X18 = CCCCN([C@@H](Cc1ccc(C(F)(F)F)cc1)C(=O)[*:2])[*:1]; X48 = CCCN([C@@H](Cc1ccc(OCC=[*:3])cc1)C(=O)[*:2])[*:1]; NPrPhe(4-CF3) = CCCN[C@@H](Cc1ccc(C(F)(F)F)cc1)C(=O)O; X47 = CN([C@@H](CCC=[*:3])C(=O)[*:2])[*:1]; NMeGly(cPent) = CN[C@H](C(=O)O)C1CCCC1; Hyp = O=C(O)[C@@H]1C[C@@H](O)CN1; NMeD = CN[C@@H](CC(=O)O)C(=O)O; NMeL = CN[C@@H](CC(C)C)C(=O)O; Oxazolidin(3-yl) = C1CN(*)CO1; Morpholide = C1CN(*)CCO1; NMeA = CN[C@@H](C)C(=O)O; Ac5c = NC1(C(=O)O)CCCC1; Aze = O=C(O)[C@@H]1CCN1; Sar = CNCC(=O)O

What was measured:
[1] = molecular target: GDP-bound NRAS wild-type protein (Homo sapiens, UniProt P01111); test: Binding to NRAS by surface plasmon resonance (SPR), KD and KD ratio to KRAS; details: ratio of KD for GDP-bound NRAS wild-type protein to KD for KRAS
Chain of GDP-bound NRAS wild-type protein (P01111 whole entry): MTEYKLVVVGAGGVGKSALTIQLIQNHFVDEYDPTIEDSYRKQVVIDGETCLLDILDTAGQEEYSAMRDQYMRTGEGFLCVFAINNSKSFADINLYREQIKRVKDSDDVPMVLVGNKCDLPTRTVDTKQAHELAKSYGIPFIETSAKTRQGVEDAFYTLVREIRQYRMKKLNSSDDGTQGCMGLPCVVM
Method in brief: (§1)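 GDP-bound biotin-Avi RAS captured at ~100–300 RU, 30°C, pH 7.4 HBS containing 10 µM GDP, 10 mM MgCl2, 1 mM DTT, 0.01% Tween 20 and 4% DMSO. KD by 1:1 fitting.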

HRAS wild-type protein = HRAS wild-type protein (Homo sapiens, UniProt P01112); test: Binding to HRAS by surface plasmon resonance (SPR), KD and KD ratio to KRAS; details: ratio of KD for HRAS wild-type protein to KD for KRAS
Chain of HRAS wild-type protein (P01112 whole entry): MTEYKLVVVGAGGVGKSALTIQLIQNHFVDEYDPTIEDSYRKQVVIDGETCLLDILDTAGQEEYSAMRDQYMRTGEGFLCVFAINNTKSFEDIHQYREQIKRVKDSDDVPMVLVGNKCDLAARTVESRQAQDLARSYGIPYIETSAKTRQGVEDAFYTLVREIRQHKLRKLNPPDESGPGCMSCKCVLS
Method in brief: as §1

[2] = tested on: human lung cancer strain NCI-H441; format: cell-based
Method in brief: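 Readout: […] after the ATP-based reagent. Compound: serial dilutions in dimethyl sulfoxide.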

IC50 [2] | SMILES | NRAS /KRAS [1] | HRAS /KRAS (HRAS wild-type protein)
47.3 nM | CCC[C@H]1C(=O)N[C@@H]([C@@H](C)CC)C(=O)N(C)CC(=O)N(C)[C@H]2C/C=C\CCN(C2=O)[C@@H](Cc2ccc(C(F)(F)F)cc2)C(=O)N(C)CC(=O)N[C@@H](CCc2ccc(Cl)c(OC)c2)C(=O)N2C[C@H](OCC)C[C@H]2C(=O)NC2(CC(C)(C)C2)C(=O)N(C)[C@@H](C(CC)CC)C(=O)N(C)[C@H](C(=O)N(C)C)CC(=O)N1C [PP2789] | AA (a compound having 20 or more is denoted as AA) | A (a compound having 10 or more and less than 20 is denoted as A)
4.9 nM | CCCN1C(=O)CN(C)C(=O)CN(C)C(=O)[C@H]([C@@H](C)CC)NC(=O)[C@@H]2CCC=CCOc3ccc(cc3)C[C@H]1C(=O)N(C)CC(=O)N[C@@H](CCc1cc(F)c(C(F)(F)F)c(F)c1)C(=O)N1C[C@H](OCC)C[C@H]1C(=O)NC1(CCCC1)C(=O)N(C)[C@@H](C1CCCC1)C(=O)N(C)[C@H](C(=O)N(C)C)CC(=O)N2C [PP0900] ([X47]I[Sar][Sar][X48][Sar][hPhe(3,5-F2-4-CF3)][Hyp](Et)[Ac5c][NMeGly(cPent)][NMeD]-NMe2; staple 1-5; lactam N-11) | C (A compound having a KD ratio of 0.1 or more and less than 3 is denoted as C) | C (A compound having a KD ratio of 0.1 or more and less than 3 is denoted as C)
5.6 nM | CCCCN1C(=O)CN(C)C(=O)CN(C)C(=O)[C@H]([C@@H](C)CC)NC(=O)[C@H](CC(C)C)N(C)C(=O)C[C@@H](C(=O)N2CCOCC2)N(C)C(=O)[C@H](C2CCCC2)N(C)C(=O)C2(CCCC2)NC(=O)[C@@H]2CCCN2C(=O)[C@H](CCc2ccc(C(F)(F)F)c(Cl)c2)NC(=O)CN(C)C(=O)[C@@H]1Cc1ccc(C(F)(F)F)cc1 [PP0120] ([NMeL]I[Sar][Sar][X18][Sar][hPhe(3-Cl-4-CF3)]P[Ac5c][NMeGly(cPent)][NMeD]-Morpholide; lactam N-11) | B (a compound having 3 or more and less than 10 is denoted as B) | C (A compound having a KD ratio of 0.1 or more and less than 3 is denoted as C)
1.6 nM | CCCN1C(=O)[C@@H]2CCN2C(=O)[C@H](C)N(C)C(=O)[C@H]([C@@H](C)CC)NC(=O)[C@H](CC(C)C)N(C)C(=O)C[C@@H](C(=O)N2CCOC2)N(C)C(=O)[C@H](C2CCCC2)N(C)C(=O)C2(CCCC2)NC(=O)[C@@H]2CCCN2C(=O)[C@H](CCc2ccc(C(F)(F)F)c(Cl)c2)NC(=O)CN(C)C(=O)[C@@H]1Cc1ccc(C(F)(F)F)cc1 [PP0183] ([NMeL]I[NMeA][Aze][NPrPhe(4-CF3)][Sar][hPhe(3-Cl-4-CF3)]P[Ac5c][NMeGly(cPent)][NMeD]-{Oxazolidin(3-yl)}; lactam N-11) | C (A compound having a KD ratio of 0.1 or more and less than 3 is denoted as C) | B (a compound having 3 or more and less than 10 is denoted as B)
28.1 nM | CCO[C@@H]1C[C@H]2C(=O)NC3(CCC3)C(=O)N(C)[C@@H](CC(C)(C)C)C(=O)N(C)[C@H](C(=O)N3CCCC3)CC(=O)N(C)[C@@H](CC)C(=O)N[C@@H]([C@@H](C)CC)C(=O)N(C)CC(=O)N(C)[C@H]3C/C=C\CCN(C3=O)[C@@H](CC3CCCCC3)C(=O)N(C)CC(=O)N[C@@H](CCc3cc(F)c(C(F)(F)F)c(F)c3)C(=O)N2C1 [PP2772] | B (a compound having 3 or more and less than 10 is denoted as B) | B (a compound having 3 or more and less than 10 is denoted as B)
255 nM | CCCCO[C@@H]1C[C@H]2C(=O)NC3(CCC3)C(=O)N(C)[C@@H](C3CCCC3)C(=O)N(C)[C@H](C(=O)N3CCOCC3)CC(=O)N(C)[C@@H](CC(C)C)C(=O)N[C@@H]([C@@H](C)CC)C(=O)N(C)CC(=O)N(C)[C@H]3CCCCCN(C3=O)[C@@H](Cc3ccc(C(F)(F)F)cc3)C(=O)N(C)CC(=O)N[C@@H](CCc3cc(F)c(C(F)(F)F)c(F)c3)C(=O)N2C1 [PP1004] | B (a compound having 3 or more and less than 10 is denoted as B) | B (a compound having 3 or more and less than 10 is denoted as B)

SMILES | IC50 [2] | NRAS /KRAS [1] | HRAS /KRAS (HRAS wild-type protein)
CCC[C@H]1C(=O)N[C@@H]([C@@H](C)CC)C(=O)N(C2CC2)CC(=O)N(C)[C@H]2C/C=C\CCN(C2=O)[C@@H](Cc2ccc(C)cc2)C(=O)N(C)CC(=O)N[C@@H](CCc2cc(Cl)c(C(F)F)c(Cl)c2)C(=O)N2C[C@H](OCC)C[C@H]2C(=O)NC2(CC(C)(C)C2)C(=O)N(C)[C@@H](C2CCCC2)C(=O)N(C)[C@H](C(=O)N(C)C)CC(=O)N1C [PP2877] | 96 nM | A (a compound having 10 or more and less than 20 is denoted as A) | A (a compound having 10 or more and less than 20 is denoted as A)
